Experimental data published in ChEMBL document CHEMBL1201862, “PubChem BioAssay data set” (2004).
Structures can show the parent of a compound that is named as a salt.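 Following 48 hours of exposure in 96-well plates, responses at five concentrations were used to interpolate endpoints linearly. Abbreviation: GI50, concentration required for 50% inhibition of growth.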 The source made the active and inactive calls. Rule as the data show it: active = GI50 up to about 1.1 µM and inactive = higher.

What was measured:
Experiment in all cases: NCI-60 cell line screen, 48 h
A498 = tested on: A498
A549 = tested on: A549
CAKI-1 = tested on: CAKI-1
COLO 205 = tested on: COLO 205
HL-60 = tested on: HL-60
HOP-62 = tested on: HOP-62
HT-29 = tested on: HT-29
KM12 = tested on: KM12
LOX IMVI = tested on: LOX IMVI
M19-MEL = tested on: M19-MEL
Malme-3M = tested on: Malme-3M
SF-268 = tested on: SF-268
SN12C = tested on: SN12C
SNB-75 = tested on: SNB-75
UACC-257 = tested on: UACC-257
BT-549 = tested on: BT-549
Hs-578T = tested on: Hs-578T
MDA-N = tested on: MDA-N
NCI/ADR-RES = tested on: NCI/ADR-RES
PC-3 = tested on: PC-3

Measured: GI50

CC(C)OCN/C(N)=N\C#N
inactive: A498 > 100 µM | A549 > 100 µM | CAKI-1 > 100 µM | COLO 205 29.1 µM | HL-60 > 100 µM | HOP-62 > 100 µM | HT-29 43.8 µM | KM12 > 100 µM | LOX IMVI 20.5 µM | M19-MEL > 100 µM | Malme-3M > 100 µM | SF-268 > 100 µM | SN12C > 100 µM | SNB-75 > 100 µM | UACC-257 > 100 µM

CC(=O)OC1CC[C@@]2(C)C(CC[C@]3(C)C2CC=C2[C@@H]4C(C)[C@H](C)CCC4(C)CCC23C)[C@@]1(C)C(=O)O (stereo not given in full)
inactive: A498 19.5 µM | A549 17.5 µM | BT-549 25 µM | CAKI-1 18.2 µM | COLO 205 20.4 µM | HL-60 27.4 µM | HOP-62 20.7 µM | HT-29 21.2 µM | Hs-578T 25.7 µM | KM12 21.2 µM | LOX IMVI 20.9 µM | M19-MEL 23.1 µM | MDA-N 20.9 µM | Malme-3M 24.2 µM | NCI/ADR-RES 17 µM | PC-3 15.4 µM | SF-268 23.5 µM | SN12C 21.5 µM | SNB-75 19.2 µM | UACC-257 21 µM

N[C@@H](Cc1ccc(N(CCCl)CCCl)cc1)C(=O)O [MELPHALAN HYDROCHLORIDE]
inactive: A498 99.1 µM | A549 28.7 µM | BT-549 38 µM | CAKI-1 10.9 µM | COLO 205 43.3 µM | HL-60 2.51 µM | HOP-62 15.4 µM | HT-29 75.3 µM | Hs-578T 51.8 µM | KM12 71.1 µM | LOX IMVI 20.3 µM | M19-MEL 39.6 µM | MDA-N 46.3 µM | Malme-3M 23.8 µM | NCI/ADR-RES 40.7 µM | PC-3 37.4 µM | SF-268 19.9 µM | SN12C 14.5 µM | SNB-75 34.7 µM | UACC-257 42.5 µM
